# Laboratory results taken from patent US11479587B2, “Cationic intrinsically disordered antimicrobial peptides” (priority 2016, dated 2022).
# Values joined by “and” are separate entries in the source; they are usually repeats but may differ in a detail not shown here. Identical values can stand only once. Like-named read-outs stand apart in the source and are kept apart here. Residues, ends and D or L forms follow the SMILES beside them.
# Columns and labels:
# A. baumannii ATCC 19606 = assay type: cell-based, Acinetobacter baumannii
# Experimental: (§1) Inhibition of bacterial growth was determined using resazurin as a marker for cell viability. Resazurin was added to each well, at 0.001% final concentration, and plates incubated at 37° C. for 2 h. Fluorescence intensity was measured, using F (top read), ex 560/10 nm, em 590/10 nm, using a Tecan M1000 Pro monochromator plate reader.
# Hemolysis assay = assay type: cell-based; settings: for HC50 at 1 h: human, washed erythrocytes from EDTA-blood, pH 7.4
# Summary of the method: (§2)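 Washed EDTA-blood erythrocytes in 5% PBS, pH 7.4, were rotated 1 h at 37° C with peptides at 0, 3, 10, 30, 60 μm. Hemoglobin release read at 540 nm as % of 0.1% Triton X-100 hemolysis; CC50 from dose-response curve of triplicates.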
# [1] = Cytotoxicity (resazurin) assay
# Summary of the method: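 HEK293 cells (4000/well) in DMEM with 10% FBS exposed to compound for 20 h at 37 °C, 5% CO2. Resazurin (100 μM final) added for a further 3 h and fluorescence read at 560/590 nm. CC50 obtained from dose–response fit of percentage cytotoxicity.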
# E. coli ATCC 25922 = assay type: cell-based, Escherichia coli
# Experimental: as §1
# [2] = tested on: methicillin-resistant S. aureus strain (ATCC 43300); assay type: cell-based, Staphylococcus aureus
# Experimental: Furthermore, sensitivity of a methicillin-resistant S. aureus strain (ATCC 43300) was investigated for palmitoylated CIDAMPs in a microtiter plate screening model, with incubation in Mueller-Hinton medium at 37° C. for 18 h using resazurin as a marker for cell viability.
# A sample of each culture was then diluted 40-fold in fresh broth and incubated at 37° C. for 1.5-3 h. […] All the plates were covered and incubated at 37° C. for 18 h.
# as §1
# P. aeruginosa ATCC 27853 = assay type: cell-based, Pseudomonas aeruginosa; settings: ATCC 27853, 2 h
# Experimental: as §1
# erythrocytes = test: Hemolysis assay; assay type: cell-based
# Summary of the method: as §2
# S. aureus ATCC 6538 = test: CFU-assay, S. aureus-cidal activity; assay type: cell-based, Staphylococcus aureus; settings: pH 5.5, 1% TSB
# Summary of the method: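 Bactericidal CFU-assay in nutrient-deficient 10 mM sodium phosphate buffer pH 5.5 with 0.25% glucose, counting surviving colonies across twofold peptide dilutions from 300 μg/ml to 19 ng/ml. Output is minimal bactericidal concentration (e.g. MBC90, MBC100); some peptides also tested at pH 7.0.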
# P. aeruginosa ATCC 10145 = test: CFU-assay, P. aeruginosa-cidal activity; assay type: cell-based, Pseudomonas aeruginosa
# [3] = tested on: Candida albicans ATCC 24433; test: CFU-assay, Candida albicans-cidal activity; assay type: cell-based
# Experimental: Thus, within the present invention, the antimicrobial activity is generally measured in nutrient deficient 10 mM sodium phosphate buffer pH 5.5, containing 0.25% glucose, using the CFU-assay according to Steinberg and Lehrer, 1997 (supra), unless otherwise indicated. The CFU-assay allows determination of the minimal bactericidal concentration (MBC, e.g., MBC90 and MBC100; i.e. the concentration of compound required to achieve a specified reduction in bacterial cell number (microbial death or killing)). […]
# HR 1-17 affects C. albicans ATCC 24433 with highest activity at pH 5.5 in the absence of TSB in the medium (see Tables 12, 24). […] Furthermore, the substitution of any of the Arg residues by Gly leads to a dramatic reduction or loss of candidacidal activity (see Table 24).
# [4] = tested on: Burkholderia cepacia ATCC 25416; test: CFU-assay, Burkholderia cepacia-cidal activity; assay type: cell-based; settings: pH 5.5, 0.25% glucose
# [5] = tested on: Escherichia coli ATCC11775; test: CFU-assay, antimicrobial activity spectrum; assay type: cell-based; settings: pH 5.5, 1% TSB
# [6] = erythrocytes, read-out: Hemolysis (CC50)
compound,measurement,setting,value
CCCCCCCCCCCCCCCC(=O)NCC(=O)N[C@@H](CCCNC(=N)N)C(=O)N[C@@H](CCCNC(=N)N)C(=O)NCC(=O)NCC(=O)N[C@@H](CCCNC(=N)N)C(=O)NCC(=O)NCC(=O)N[C@@H](CCCNC(=N)N)C(=O)NCC(=O)N[C@@H](CCCNC(=N)N)C(=O)O [Pal-GR11] (HELM PEPTIDE1{[CCCCCCCCCCCCCCCC(=O)[*:2]].G.R.R.G.G.R.G.G.R.G.R}$$$$V2.0),"MIC, C. neoformans ATCC 208821",C. neoformans,≥4 µg/mL
same,"MIC, A. baumannii ATCC 19606","A. baumannii ATCC 19606; ATCC 19606, 2 h",≥8 µg/mL
same,HC50,Hemolysis assay,90 µg/mL
same,CC50,[1],> 32 µg/mL
same,"MIC, E. coli ATCC 25922","E. coli ATCC 25922; ATCC 25922, 2 h",≥8 µg/mL
same,"MIC, S. aureus ATCC 43300","[2]; ATCC 43300, 18 h",≥4 µg/mL
same,"MIC, C. albicans ATCC 90028",C. albicans ATCC 928; ATCC 928,≥4 µg/mL
same,"MIC, P. aeruginosa ATCC 27853",P. aeruginosa ATCC 27853,≥16 µg/mL
CCCCCCCCCCCCCCCC(=O)N[C@@H](CCCNC(=N)N)C(=O)NCC(=O)N[C@@H](CO)C(=O)N[C@@H](CCCNC(=N)N)C(=O)N[C@@H](CO)C(=O)NCC(=O)N[C@@H](CCC(N)=O)C(=O)N[C@@H](CO)C(=O)N[C@@H](CO)C(=O)N[C@@H](CCCNC(=N)N)C(=O)NCC(=O)N[C@@H](CCC(=O)O)C(=O)N[C@@H](CCCNC(=N)N)C(=O)N[C@@H](CCCNC(=N)N)C(=O)O [Pal-HR 1-11 2H2R-14] (HELM PEPTIDE1{[CCCCCCCCCCCCCCCC(=O)[*:2]].R.G.S.R.S.G.Q.S.S.R.G.E.R.R}$$$$V2.0),"MIC, C. neoformans ATCC 208821",C. neoformans,≥8 µg/mL
same,"MIC, A. baumannii ATCC 19606",A. baumannii ATCC 19606; Mueller-Hinton medium,≥4 µg/mL
same,HC50,Hemolysis assay; [6],> 300 µg/mL
same,CC50,[1],> 32 µg/mL
same,"MIC, E. coli ATCC 25922",E. coli ATCC 25922; Mueller-Hinton medium,≥8 µg/mL
same,"MIC, S. aureus ATCC 43300",[2]; Mueller-Hinton medium,≥8 µg/mL
CCCCCCCCCCCCCCCC(=O)N[C@@H](CCCNC(=N)N)C(=O)NCC(=O)N[C@@H](CO)C(=O)N[C@@H](CCCNC(=N)N)C(=O)N[C@@H](CO)C(=O)NCC(=O)N[C@@H](CCC(N)=O)C(=O)N[C@@H](CO)C(=O)N[C@@H](CO)C(=O)N[C@@H](CCCNC(=N)N)C(=O)NCC(=O)N[C@@H](CCC(=O)O)C(=O)N[C@@H](CCCNC(=N)N)C(=O)N[C@@H](CCCNC(=N)N)C(=O)NCC(=O)N[C@@H](CO)C(=O)N[C@@H](CO)C(=O)N[C@@H](CO)C(=O)NCC(=O)N[C@@H](CO)C(=O)N[C@@H](CO)C(=O)N[C@@H](CO)C(=O)N[C@@H](CCCNC(=N)N)C(=O)O [Pal-HR 1-11 3H3R] (HELM PEPTIDE1{[CCCCCCCCCCCCCCCC(=O)[*:2]].R.G.S.R.S.G.Q.S.S.R.G.E.R.R.G.S.S.S.G.S.S.S.R}$$$$V2.0),"MIC, C. neoformans ATCC 208821",C. neoformans,≥32 µg/mL
same,"MIC, A. baumannii ATCC 19606",A. baumannii ATCC 19606; Mueller-Hinton medium,≥8 µg/mL
same,HC50,Hemolysis assay; [6],> 300 µg/mL
same,CC50,[1],> 32 µg/mL
same,"MIC, E. coli ATCC 25922",E. coli ATCC 25922; Mueller-Hinton medium,≥32 µg/mL
same,"MIC, S. aureus ATCC 43300",[2]; Mueller-Hinton medium,>32 µg/mL
same,"MIC, C. albicans ATCC 90028",C. albicans ATCC 928,≥32 µg/mL
CCCCCCCCCCCCCCCC(=O)NCC(=O)N[C@@H](CCCNC(=N)N)C(=O)N[C@@H](CCCNC(=N)N)C(=O)NCC(=O)N[C@@H](CO)C(=O)NCC(=O)N[C@@H](CC(C)C)C(=O)NCC(=O)N[C@@H](CCCNC(=N)N)C(=O)N[C@@H](CO)C(=O)N[C@@H](CO)C(=O)N[C@@H](CO)C(=O)N[C@@H](CCCNC(=N)N)C(=O)O [Pal-HR 1-18 3H3R-GR13] (HELM PEPTIDE1{[CCCCCCCCCCCCCCCC(=O)[*:2]].G.R.R.G.S.G.L.G.R.S.S.S.R}$$$$V2.0),"MIC, C. neoformans ATCC 208821",C. neoformans,≥16 µg/mL
same,"MIC, A. baumannii ATCC 19606","A. baumannii ATCC 19606; ATCC 19606, 2 h",≥16 µg/mL
same,HC50,Hemolysis assay,> 300 µg/mL
same,hemolytic activity (in words),erythrocytes,low hemolytic activity
same,CC50,[1],> 32 µg/mL
same,"MIC, S. aureus ATCC 43300","[2]; ATCC 43300, 18 h",≥16 µg/mL
CCCCCCCCCCCCCCCC(=O)NCC(=O)N[C@@H](CCCNC(=N)N)C(=O)N[C@@H](CCCNC(=N)N)C(=O)NCC(=O)N[C@@H](CO)C(=O)NCC(=O)N[C@@H](CC(C)C)C(=O)NCC(=O)N[C@@H](CCCNC(=N)N)C(=O)N[C@@H](CO)C(=O)N[C@@H](CO)C(=O)N[C@@H](CO)C(=O)N[C@@H](CCCNC(=N)N)C(=O)NCC(=O)N[C@@H](CCC(N)=O)C(=O)N[C@@H](CCCNC(=N)N)C(=O)NCC(=O)N[C@@H](CO)C(=O)NCC(=O)N[C@@H](CO)C(=O)NCC(=O)N[C@@H](CCCNC(=N)N)C(=O)O [Pal-HR 1-18 HR] (HELM PEPTIDE1{[CCCCCCCCCCCCCCCC(=O)[*:2]].G.R.R.G.S.G.L.G.R.S.S.S.R.G.Q.R.G.S.G.S.G.R}$$$$V2.0),"MIC, C. neoformans ATCC 208821",C. neoformans,≥1 µg/mL
same,"MIC, A. baumannii ATCC 19606","A. baumannii ATCC 19606; ATCC 19606, 2 h",≥1 µg/mL
same,HC50,Hemolysis assay,> 300 µg/mL
same,HC50 at 1 h,Hemolysis assay,> 119 µM
same,hemolytic activity (in words),erythrocytes,low hemolytic activity
same,CC50,[1],> 32 µg/mL and > 13.3 µM
same,"MIC, E. coli ATCC 25922","E. coli ATCC 25922; ATCC 25922, 2 h",≥4 µg/mL
same,"MIC, S. aureus ATCC 43300","[2]; ATCC 43300, 18 h",≥8 µg/mL
same,MIC,"C. albicans ATCC 928; ATCC 928, 18 h, pH 7.4",1 to 32 µg/mL
same,"MIC, P. aeruginosa ATCC 27853",P. aeruginosa ATCC 27853,≥16 µg/mL
CCCCCCCCCCCCCCCC(=O)NCC(=O)N[C@@H](CCCNC(=N)N)C(=O)N[C@@H](Cc1c[nH]cn1)C(=O)NCC(=O)N[C@@H](CO)C(=O)NCC(=O)N[C@@H](CC(C)C)C(=O)NCC(=O)N[C@@H](Cc1c[nH]cn1)C(=O)N[C@@H](CO)C(=O)N[C@@H](CO)C(=O)N[C@@H](CO)C(=O)N[C@@H](Cc1c[nH]cn1)C(=O)NCC(=O)N[C@@H](CCC(N)=O)C(=O)N[C@@H](Cc1c[nH]cn1)C(=O)NCC(=O)N[C@@H](CO)C(=O)NCC(=O)N[C@@H](CO)C(=O)NCC(=O)N[C@@H](CCCNC(=N)N)C(=O)O [Pal-HR 1-18] (HELM PEPTIDE1{[CCCCCCCCCCCCCCCC(=O)[*:2]].G.R.H.G.S.G.L.G.H.S.S.S.H.G.Q.H.G.S.G.S.G.R}$$$$V2.0),"MIC, A. baumannii ATCC 19606","A. baumannii ATCC 19606; ATCC 19606, 2 h",≥32 µg/mL
same,HC50,Hemolysis assay,> 300 µg/mL
same,HC50 at 1 h,Hemolysis assay,> 130 µM
same,hemolytic activity (in words),erythrocytes,low hemolytic activity
same,CC50,[1],> 32 µg/mL and > 13.7 µM
GRHGSGLGHSSSHGQHGSGSGRSSSRGPY (Peptide derived from human hornerin (HR 1-17)),MBC90,S. aureus ATCC 6538,>300 µg/mL
same,MBC100,S. aureus ATCC 6538,>300 µg/mL
same,MBC90,"P. aeruginosa ATCC 10145; pH 5.0, 0.25% glucose",0.038 µg/mL and 0.0375 µg/mL
same,MBC100,"P. aeruginosa ATCC 10145; pH 5.0, 0.25% glucose",0.15 µg/mL
same,MBC100,"P. aeruginosa ATCC 10145; pH 5.5, 0.25% glucose",0.15 µg/mL and 0.3 µg/mL
same,MBC90,"P. aeruginosa ATCC 10145; pH 5.5, 1% TSB",0.59 µg/mL
same,MBC100,"P. aeruginosa ATCC 10145; pH 5.5, 1% TSB",18.75 µg/mL
same,MBC90,[3],0.56 µM
same,MBC90,"[3]; pH 5.5, 0.25% glucose",1.18 µg/mL
same,MBC100,"[3]; pH 5.5, 0.25% glucose",9.38 µg/mL
same,MBC100,"[3]; pH 5.5, 1% TSB",150 µg/mL and >300 µg/mL
same,MBC90,"[3]; pH 7.2, 1.% TSB",>300 µg/mL
same,MBC100,"[3]; pH 7.2, 1.% TSB",>300 µg/mL
same,MBC90,[4],>300 µg/mL
same,MBC100,[4],>300 µg/mL
same,MBC90,[5],>300 µg/mL
same,MBC100,[5],>300 µg/mL
